Laboratory results as given in the NIST ThermoML archive (doi:10.1021/je050165t).

Assays:
[1] = 101 kPa, Liquid
[2] = xn = mol fraction of the nth substance listed; conditions: 101 kPa, Liquid

CCCCn1cc[n+](C)c1.F[P-](F)(F)(F)(F)F [1-butyl-3-methylimidazolium hexafluorophosphate]
[1]
Conditions	mass density [kg/m3]	speed of sound [m/s]
298.15 K	1366.66	1442.4
303.15 K	1362.4	1430.6
308.15 K	1358.3	1419
313.15 K	1354.19	1407.5
318.15 K	1350.08	1396.3

CCCCn1cc[n+](C)c1.F[P-](F)(F)(F)(F)F [1-butyl-3-methylimidazolium hexafluorophosphate] + CC#N
[2]
Conditions	mass density, 298.15 K [kg/m3]	mass density, 303.15 K [kg/m3]	mass density, 308.15 K [kg/m3]	mass density, 313.15 K [kg/m3]	mass density, 318.15 K [kg/m3]	speed of sound, 298.15 K [m/s]	speed of sound, 303.15 K [m/s]	speed of sound, 308.15 K [m/s]	speed of sound, 313.15 K [m/s]	speed of sound, 318.15 K [m/s]
x1 = 0.0453	878.471	873.235	866.821	862.713	857.428	1293.5	1275.1	1256.7	1238.4	1220.2
x1 = 0.0935	959.103	954.02	948.924	943.817	938.706	1308.9	1291.8	1274.6	1257.5	1240.5
x1 = 0.2007	1085.08	1080.25	1075.41	1070.58	1065.76	1341.9	1326.2	1310.9	1295.8	1280.9
x1 = 0.2966	1159.89	1155.23	1150.56	1145.9	1141.24	1366.5	1352.2	1338.1	1324	1310
x1 = 0.4241	1228.44	1223.91	1219.4	1214.89	1210.4	1389	1375.6	1362.3	1349.2	1336.3
x1 = 0.514	1263.52	1258.71	1254.64	1250.22	1245.81	1402	1389.2	1376.5	1363.8	1351.2
x1 = 0.6186	1294.95	1290.95	1286.59	1282.25	1277.92	1413.5	1401	1388.7	1376.5	1364.4
x1 = 0.7285	1320.82	1316.59	1312.32	1308.06	1303.82	1423.9	1411.8	1399.9	1388	1376.2
x1 = 0.7886	1332.55	1328.3	1324.05	1319.81	1315.59	1427.9	1415.9	1404.1	1392.4	1380.8
x1 = 0.8925	1350.78	1346.33	1342.2	1338.05	1333.89	1436.5	1424.5	1412.6	1401	1389.5
x1 = 1	1366.66	1362.4	1358.3	1354.19	1350.08	1442.4	1430.6	1419	1407.5	1396.3
